Data on 10 molecules can be found in PubChem BioAssay AID180 (DTP/NCI, 2004).

The test system of this assay is BDF1 mice, Adenocarcinoma 755 s.c., tumor weight T/C. The assay can be described thus: NCI In Vivo Anticancer Drug Screen. Data for tumor model Adenocarcinoma 755 (subcutaneous) in B6D2F1 (BDF1) mice. The settings on record: endpoint: mean tumor weight, higher = larger tumour. Summed up: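 Readout: T/C, i.e. treated-group measurement over vehicle-control measurement. Endpoint is survival or tumor size in tumor-bearing mice given compound.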

The mark [1] stands for this setting: dose: 25.0 mg/kg/injection, schedule: Q01DX011 (ip), vehicle: carboxymethylcellulose (CMC).
Setting [2] is: dose: 100.0 mg/kg/injection, schedule: Q01DX011 (ip), vehicle: carboxymethylcellulose (CMC).
The mark [3] stands for this setting: dose: 200.0 mg/kg/injection, schedule: Q01DX011 (ip), vehicle: carboxymethylcellulose (CMC).
Setting [4] is: dose: 200.0 mg/kg/injection, schedule: Q01DX011 (ip), vehicle: saline.
[5] abbreviates: dose: 25.0 mg/kg/injection, schedule: Q01DX011 (ip), vehicle: other.
[6] abbreviates: dose: 100.0 mg/kg/injection, schedule: Q01DX011 (ip), vehicle: other.

Structures are written as SMILES. “And” between values parts separate entries of the source, which are not always exact repeats. Equal values may be shown once.

As a reminder, the T/C is the result in the treated group divided by that in the control group, in per cent. Take `Oc1ccc2ccccc2c1N=Nc1ccc(N=Nc2ccccc2)cc1`: the T/C was 121 % of control under setting [1], 116 % of control under setting [2] and 108 % of control under setting [3].
In the case of `CNC=O`, the T/C runs as follows: (dose: 4.41 mg/kg/injection, schedule: Q01DX011 (ip), vehicle: carboxymethylcellulose (CMC)) 107 % of control; (dose: 8.82 mg/kg/injection, schedule: Q01DX011 (ip), vehicle: carboxymethylcellulose (CMC)) 94 % of control; (dose: 17.65 mg/kg/injection, schedule: Q01DX011 (ip), vehicle: carboxymethylcellulose (CMC)) 110 % of control; (dose: 42.88 mg/kg/injection, schedule: Q01DX011 (ip), vehicle: carboxymethylcellulose (CMC)) 60 % of control; (dose: 45.0 mg/kg/injection, schedule: Q01DX011 (ip), vehicle: carboxymethylcellulose (CMC)) 113 % of control; (dose: 85.75 mg/kg/injection, schedule: Q01DX011 (ip), vehicle: carboxymethylcellulose (CMC)) 78 % of control. In addition, the T/C by setting is: (dose: 90.0 mg/kg/injection, schedule: Q01DX011 (ip), vehicle: carboxymethylcellulose (CMC)) 99 % of control; (dose: 93.67 mg/kg/injection, schedule: Q01DX011 (ip), vehicle: carboxymethylcellulose (CMC)) 104 % of control; (dose: 137.2 mg/kg/injection, schedule: Q01DX011 (ip), vehicle: carboxymethylcellulose (CMC)) 70 % of control; (dose: 144.0 mg/kg/injection, schedule: Q01DX011 (ip), vehicle: carboxymethylcellulose (CMC)) 86 % of control; (dose: 180.0 mg/kg/injection, schedule: Q01DX011 (ip), vehicle: carboxymethylcellulose (CMC)) 98 % of control; (dose: 187.35 mg/kg/injection, schedule: Q01DX011 (ip), vehicle: carboxymethylcellulose (CMC)) 100 % of control and 111 % of control. Also, the T/C is, setting by setting: under setting [4], 31 % of control; (dose: 228.6 mg/kg/injection, schedule: Q01DX011 (ip), vehicle: carboxymethylcellulose (CMC)) 65 % of control; (dose: 240.0 mg/kg/injection, schedule: Q01DX011 (ip), vehicle: carboxymethylcellulose (CMC)) 101 % of control; (dose: 250.0 mg/kg/injection, schedule: Q01DX011 (ip), vehicle: saline) 14 % of control; (dose: 300.0 mg/kg/injection, schedule: Q01DX011 (ip), vehicle: saline) 1 % of control; (dose: 343.0 mg/kg/injection, schedule: Q01DX011 (ip), vehicle: carboxymethylcellulose (CMC)) 20 % of control and 30 % of control. The T/C (dose: 360.0 mg/kg/injection, schedule: Q01DX011 (ip), vehicle: carboxymethylcellulose (CMC)) is 30 % of control and 35 % of control; the T/C (dose: 374.7 mg/kg/injection, schedule: Q01DX011 (ip), vehicle: carboxymethylcellulose (CMC)) was 103 % of control.
`CC(C)CNS(=O)(=O)c1ncnc2nc[nH]c12`: the T/C was 62 % of control (dose: 6.0 mg/kg/injection, schedule: Q01DX011 (ip), vehicle: carboxymethylcellulose (CMC)); 81 % of control (dose: 6.0 mg/kg/injection, schedule: Q01DX011 (ip), vehicle: other); 96 % of control (dose: 12.0 mg/kg/injection, schedule: Q01DX011 (ip), vehicle: other); 24 % of control (dose: 12.5 mg/kg/injection, schedule: Q01DX011 (ip), vehicle: carboxymethylcellulose (CMC)); 12 % of control (dose: 19.0 mg/kg/injection, schedule: Q01DX011 (ip), vehicle: carboxymethylcellulose (CMC)); 8 % of control under setting [1]. Further, the T/C reads like this: under setting [5], 34 % of control; (dose: 50.0 mg/kg/injection, schedule: Q01DX011 (ip), vehicle: other) 6 % of control; (dose: 75.0 mg/kg/injection, schedule: Q01DX011 (ip), vehicle: carboxymethylcellulose (CMC)) 2 % of control; under setting [6], 10 % of control.
`CCC(=O)NC`: the T/C runs as follows: (dose: 45.0 mg/kg/injection, schedule: Q01DX011 (ip), vehicle: saline) 107 % of control; (dose: 175.0 mg/kg/injection, schedule: Q01DX011 (ip), vehicle: saline) 81 % of control; (dose: 350.0 mg/kg/injection, schedule: Q01DX011 (ip), vehicle: saline) 118 % of control; (dose: 625.0 mg/kg/injection, schedule: Q#A X022 (ip), vehicle: other) 6 % of control; (dose: 1000.0 mg/kg/injection, schedule: Q01DX011 (ip), vehicle: other) 11 % of control; (dose: 1500.0 mg/kg/injection, schedule: Q01DX011 (ip), vehicle: other) 6 % of control. Moreover, the T/C (dose: 1560.0 mg/kg/injection, schedule: Q01DX011 (ip), vehicle: other) was 49 % of control and the T/C (dose: 1750.0 mg/kg/injection, schedule: Q01DX011 (ip), vehicle: other) is 36 % of control.
For the molecule `COc1cc(-c2ccc(N=Nc3ccc4c(S(=O)(=O)O)cc(S(=O)(=O)O)c(N)c4c3O)c(OC)c2)ccc1N=Nc1ccc2c(S(=O)(=O)O)cc(S(=O)(=O)O)c(N)c2c1O`, the T/C is 74 % of control (dose: 1.0 mg/kg/injection, schedule: Q01DX011 (ip), vehicle: carboxymethylcellulose (CMC)); 38 % of control (dose: 2.0 mg/kg/injection, schedule: Q01DX011 (ip), vehicle: carboxymethylcellulose (CMC)); 44 % of control (dose: 4.0 mg/kg/injection, schedule: Q01DX011 (ip), vehicle: carboxymethylcellulose (CMC)); 31 % of control and 43 % of control (dose: 8.0 mg/kg/injection, schedule: Q01DX011 (ip), vehicle: carboxymethylcellulose (CMC)).
For `COc1cc(-c2ccc(Nc3ccccc3C(=O)O)c(OC)c2)ccc1N`, the T/C reads like this: (dose: 10.0 mg/kg/injection, schedule: Q01DX011 (ip), vehicle: saline) 108 % of control; (dose: 20.0 mg/kg/injection, schedule: Q01DX011 (ip), vehicle: saline) 36 % of control; (dose: 40.0 mg/kg/injection, schedule: Q01DX011 (ip), vehicle: saline) 39 % of control; (dose: 80.0 mg/kg/injection, schedule: Q01DX011 (ip), vehicle: saline) 17 % of control.
On to `Oc1ccc2ccccc2c1N=Nc1ccc(Cl)cc1`, for which the T/C is 15 % of control (dose: 3.1 mg/kg/injection, schedule: Q01DX011 (ip), vehicle: other); 108 % of control (dose: 6.25 mg/kg/injection, schedule: Q01DX011 (ip), vehicle: other); 91 % of control and 84 % of control (dose: 12.5 mg/kg/injection, schedule: Q01DX011 (ip), vehicle: other); 56 % of control and 62 % of control under setting [5]; 50 % of control (dose: 50.0 mg/kg/injection, schedule: Q01DX011 (ip), vehicle: carboxymethylcellulose (CMC)); 40 % of control under setting [2]. The T/C by setting is: under setting [6], 24 % of control and 49 % of control; (dose: 100.0 mg/kg/injection, schedule: Q01DX011 (ip), vehicle: saline) 81 % of control; under setting [3], 34 % of control; (dose: 200.0 mg/kg/injection, schedule: Q01DX011 (ip), vehicle: other) 25 % of control; under setting [4], 38 % of control; (dose: 400.0 mg/kg/injection, schedule: Q01DX011 (ip), vehicle: carboxymethylcellulose (CMC)) 36 % of control. The T/C is 14 % of control and 24 % of control (dose: 400.0 mg/kg/injection, schedule: Q01DX011 (ip), vehicle: other); 28 % of control (dose: 400.0 mg/kg/injection, schedule: Q01DX011 (ip), vehicle: saline); 16 % of control (dose: 800.0 mg/kg/injection, schedule: Q01DX011 (ip), vehicle: carboxymethylcellulose (CMC)); 6 % of control (dose: 800.0 mg/kg/injection, schedule: Q01DX011 (ip), vehicle: other); 9 % of control (dose: 1200.0 mg/kg/injection, schedule: Q01DX011 (ip), vehicle: other).
As to `O=C(O)c1cccc2c3c(cc([N+](=O)[O-])c12)CCCC3`, the T/C is 101 % of control (dose: 0.18 mg/kg/injection, schedule: Q01DX011 (ip), vehicle: carboxymethylcellulose (CMC)); 97 % of control (dose: 0.37 mg/kg/injection, schedule: Q01DX011 (ip), vehicle: carboxymethylcellulose (CMC)); 85 % of control (dose: 1.5 mg/kg/injection, schedule: Q01DX011 (ip), vehicle: carboxymethylcellulose (CMC)).
For `CSc1ncnc2c1ncn2C1OC(CO)C(O)C1O` (stereo unspecified), the T/C was 102 % of control and 87 % of control (dose: 1.9 mg/kg/injection, schedule: Q01DX011 (ip), vehicle: saline); 90 % of control (dose: 3.0 mg/kg/injection, schedule: Q01DX011 (ip), vehicle: saline); 112 % of control (dose: 6.0 mg/kg/injection, schedule: Q01DX011 (ip), vehicle: saline); 100 % of control and 120 % of control (dose: 7.5 mg/kg/injection, schedule: Q01DX011 (ip), vehicle: saline); 93 % of control (dose: 12.5 mg/kg/injection, schedule: Q01DX011 (ip), vehicle: saline).
As for `NNc1ncnc2nc[nH]c12`, the T/C by setting is: under setting [1], 68 % of control; (dose: 37.5 mg/kg/injection, schedule: Q01DX011 (ip), vehicle: carboxymethylcellulose (CMC)) 57 % of control.
